In ChEMBL document CHEMBL1687944, “Purification and inhibition studies with anions and sulfonamides of an α-carbonic anhydrase from the Antarctic seal Leptonychotes weddellii” (Bioorg Med Chem, 2011):

Molecular target: Carbonic anhydrase 1 (Homo sapiens, UniProt P00915)
Sequence (P00915 whole entry): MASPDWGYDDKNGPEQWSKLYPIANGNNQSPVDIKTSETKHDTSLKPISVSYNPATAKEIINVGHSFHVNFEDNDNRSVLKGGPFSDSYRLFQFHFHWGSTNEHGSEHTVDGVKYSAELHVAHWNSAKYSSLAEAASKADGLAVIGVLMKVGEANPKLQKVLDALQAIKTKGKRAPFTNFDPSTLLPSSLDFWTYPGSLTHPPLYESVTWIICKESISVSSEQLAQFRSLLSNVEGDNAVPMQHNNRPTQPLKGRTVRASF

Structure (SMILES)	Ki
[O-][Cl+3]([O-])([O-])O [SODIUM PERCHLORATE]	> 200 mM
O=S([O-])O.[Na+] [SODIUM BISULFITE]	18 mM
O=[N+]([O-])[O-].[Na+] [SODIUM NITRATE]	7 mM
